Source: patent publication US8889874B2, “Imidazolone-chalcone derivatives as potential anticancer agent and process for the preparation thereof” (Council of Scientific and Industrial Research, priority 2010, dated 2014)
Read-outs that look alike come from different tables or passages of the source.

Experiments:
Type in all cases: cell-based, human
SF-539 (CNS) = assay: NCI anticancer screen, SRB assay, 48 h
In short: (§1)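 Compounds were tested across fifty three human cancer cell lines from nine tumour types. Each line got a dose-response curve of at least five concentrations at 10-fold dilutions, with continuous drug exposure and sulforhodamine B protein staining to estimate viability or growth.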

[1] = system: HOP-92 (non-small cell lung); assay: NCI anticancer screen, SRB assay, 48 h
In short: as §1

ACHN (renal) = assay: NCI anticancer screen, SRB assay, 48 h
In short: as §1

[2] = system: NCI-H23 (non-small cell lung); assay: NCI anticancer screen, SRB assay, 48 h
In short: as §1

HT29 (colon) = assay: NCI anticancer screen, SRB assay, 48 h
In short: as §1

LOX IMVI (melanoma) = assay: NCI anticancer screen, SRB assay, 48 h
In short: as §1

SNB-75 (CNS) = assay: NCI anticancer screen, SRB assay, 48 h
In short: as §1

SN12C (renal) = assay: NCI anticancer screen, SRB assay, 48 h
In short: as §1

SK-MEL-2 (melanoma) = assay: NCI anticancer screen, SRB assay, 48 h
In short: as §1

[3] = system: A549/ATCC (non-small cell lung); assay: NCI anticancer screen, SRB assay, 48 h
In short: as §1

SK-MEL-28 (melanoma) = assay: NCI anticancer screen, SRB assay, 48 h
In short: as §1

SF-295 (CNS) = assay: NCI anticancer screen, SRB assay, 48 h
In short: as §1

PC-3 (prostate) = assay: NCI anticancer screen, SRB assay, 48 h; conditions: for GI50: read-out: GI50
In short: as §1

BT-549 (breast) = assay: NCI anticancer screen, SRB assay, 48 h
In short: as §1

HS 578T (breast) = assay: NCI anticancer screen, SRB assay, 48 h
In short: as §1

A498 (renal) = assay: NCI anticancer screen, SRB assay, 48 h
In short: as §1

M14 (melanoma) = assay: NCI anticancer screen, SRB assay, 48 h
In short: as §1

[4] = system: NCI-H460 (non-small cell lung); assay: NCI anticancer screen, SRB assay, 48 h
In short: as §1

OVCAR-3 (ovarian) = assay: NCI anticancer screen, SRB assay, 48 h
In short: as §1

COLO 205 (colon) = assay: NCI anticancer screen, SRB assay, 48 h
In short: as §1

HCC-2998 (colon) = assay: NCI anticancer screen, SRB assay, 48 h
In short: as §1

TD-47D (breast) = assay: NCI anticancer screen, SRB assay, 48 h
In short: as §1

KM12 (colon) = assay: NCI anticancer screen, SRB assay, 48 h
In short: as §1

MDA-MB-231/ATCC (breast) = assay: NCI anticancer screen, SRB assay, 48 h
In short: as §1

[5] = system: Non-small cell lung cancer cell lines; assay: NCI anticancer screen, SRB assay, panel summary
In short: as §1

Renal cancer cell lines = assay: NCI anticancer screen, SRB assay, panel summary
In short: as §1

[6] = system: Melanoma cancer cell lines; assay: NCI anticancer screen, SRB assay, panel summary; conditions: Melanoma panel
In short: as §1

Colon cancer cell lines = assay: NCI anticancer screen, SRB assay, panel summary; conditions: Colon panel
In short: as §1

CNS cancer cell lines = assay: NCI anticancer screen, SRB assay, panel summary; conditions: CNS panel
In short: as §1

[7] = system: Prostate cancer cell lines; assay: NCI anticancer screen, SRB assay, panel summary
In short: as §1

[8] = system: Leukemia cancer cell lines; assay: NCI anticancer screen, SRB assay, panel summary; conditions: Leukemia panel
In short: as §1

[9] = system: Ovarian cancer cell lines; assay: NCI anticancer screen, SRB assay, panel summary; conditions: Ovarian panel
In short: as §1

Breast cancer cell lines = assay: NCI anticancer screen, SRB assay, panel summary
In short: as §1

[10] = 48 h exposure, SRB, read-out: GI50
[11] = log of concentration in mol/L causing 50% inhibition of net cell growth
[12] = log of concentration leading to 50% net cell death
[13] = log of concentration resulting in total inhibition of net cell growth

## COc1ccc(-c2cn(-c3cccc(C(=O)/C=C/c4cc(OC)c(OC)c(OC)c4)c3)c(=O)[nH]2)cc1 [5b, 4-(4-methoxyphenyl)-1-3-[(E)-3-(3,4,5-trimethoxyphenyl)-2-propenoyl]phenyl-2,3-dihydro-1H-2-imidazolone]
SF-539 (CNS)
  pGI50 (-log of molar concentration causing 50% inhibition of net cell growth): 5.70
SF-539 (CNS); [10]
  GI50: 2000 nM
[1]
  pGI50 (-log of molar concentration causing 50% inhibition of net cell growth): 4.83
[1]; [10]
  GI50: 14900 nM
ACHN (renal)
  pGI50 (-log of molar concentration causing 50% inhibition of net cell growth): 5.74
ACHN (renal); [10]
  GI50: 1820 nM
[2]
  pGI50 (-log of molar concentration causing 50% inhibition of net cell growth): 5.79
[2]; [10]
  GI50: 1630 nM
HT29 (colon)
  pGI50 (-log of molar concentration causing 50% inhibition of net cell growth): 5.89
HT29 (colon); [10]
  GI50: 1280 nM
LOX IMVI (melanoma)
  pGI50 (-log of molar concentration causing 50% inhibition of net cell growth): 6.14
LOX IMVI (melanoma); [10]
  GI50: 720 nM
SNB-75 (CNS)
  pGI50 (-log of molar concentration causing 50% inhibition of net cell growth): 5.34
SNB-75 (CNS); [10]
  GI50: 4590 nM
SN12C (renal); SN 12C
  pGI50 (-log of molar concentration causing 50% inhibition of net cell growth): 5.46
SN12C (renal); SN12C, 48 h exposure, SRB, read-out: GI50
  GI50: 3500 nM
SK-MEL-2 (melanoma)
  pGI50 (-log of molar concentration causing 50% inhibition of net cell growth): 5.58
SK-MEL-2 (melanoma); [10]
  GI50: 2630 nM
[3]
  pGI50 (-log of molar concentration causing 50% inhibition of net cell growth): 4.93
[3]; [10]
  GI50: 11800 nM
SK-MEL-28 (melanoma)
  pGI50 (-log of molar concentration causing 50% inhibition of net cell growth): 5.69
SK-MEL-28 (melanoma); [10]
  GI50: 2030 nM
SF-295 (CNS)
  pGI50 (-log of molar concentration causing 50% inhibition of net cell growth): 5.31
SF-295 (CNS); [10]
  GI50: 4950 nM
PC-3 (prostate); PC-3
  pGI50 (-log of molar concentration causing 50% inhibition of net cell growth): 5.21
PC-3 (prostate); PC-3, 48 h exposure, SRB
  GI50: 6220 nM
PC-3 (prostate); one prostate cancer cell line (PC-3), exposure at least 48 hrs
  GI50: 6220 nM
BT-549 (breast)
  pGI50 (-log of molar concentration causing 50% inhibition of net cell growth): 5.59
BT-549 (breast); [10]
  GI50: 2590 nM
HS 578T (breast)
  pGI50 (-log of molar concentration causing 50% inhibition of net cell growth): 5.47
HS 578T (breast); [10]
  GI50: 3390 nM
A498 (renal)
  pGI50 (-log of molar concentration causing 50% inhibition of net cell growth): 5.38
A498 (renal); [10]
  GI50: 4210 nM
M14 (melanoma)
  pGI50 (-log of molar concentration causing 50% inhibition of net cell growth): 5.73
M14 (melanoma); [10]
  GI50: 1850 nM
[4]
  pGI50 (-log of molar concentration causing 50% inhibition of net cell growth): 5.81
[4]; [10]
  GI50: 1560 nM
OVCAR-3 (ovarian)
  pGI50 (-log of molar concentration causing 50% inhibition of net cell growth): 5.75
OVCAR-3 (ovarian); [10]
  GI50: 1780 nM
COLO 205 (colon); COLO205
  pGI50 (-log of molar concentration causing 50% inhibition of net cell growth): 5.74
COLO 205 (colon); COLO 205, 48 h exposure, SRB, read-out: GI50
  GI50: 1840 nM
HCC-2998 (colon)
  pGI50 (-log of molar concentration causing 50% inhibition of net cell growth): 5.79
HCC-2998 (colon); [10]
  GI50: 1640 nM
TD-47D (breast)
  pGI50 (-log of molar concentration causing 50% inhibition of net cell growth): 5.42
TD-47D (breast); [10]
  GI50: 3840 nM
KM12 (colon)
  pGI50 (-log of molar concentration causing 50% inhibition of net cell growth): 5.85
KM12 (colon); [10]
  GI50: 1420 nM
MDA-MB-231/ATCC (breast)
  pGI50 (-log of molar concentration causing 50% inhibition of net cell growth): 5.26
MDA-MB-231/ATCC (breast); [10]
  GI50: 5480 nM
[5]
  mean graph midpoint (MG_MID) of Log10 LC50: 4.82
[5]; Non-small cell lung panel, log of concentration in mol/L causing 50% inhibition of net cell growth
  mean graph midpoint (MG_MID) of Log10 GI50: 5.30
[5]; Non-small cell lung panel, log of concentration resulting in total inhibition of net cell growth
  mean graph midpoint (MG_MID) of Log10 TGI: 4.66
Renal cancer cell lines
  mean graph midpoint (MG_MID) of Log10 LC50: 4.46
Renal cancer cell lines; Renal panel, log of concentration in mol/L causing 50% inhibition of net cell growth
  mean graph midpoint (MG_MID) of Log10 GI50: 5.60
Renal cancer cell lines; Renal panel, log of concentration resulting in total inhibition of net cell growth
  mean graph midpoint (MG_MID) of Log10 TGI: 5.12
[6]; [11]
  mean graph midpoint (MG_MID) of Log10 GI50: 5.72
[6]; [12]
  mean graph midpoint (MG_MID) of Log10 LC50: 4.58
[6]; [13]
  mean graph midpoint (MG_MID) of Log10 TGI: 5.25
Colon cancer cell lines; [11]
  mean graph midpoint (MG_MID) of Log10 GI50: 5.95
Colon cancer cell lines; [12]
  mean graph midpoint (MG_MID) of Log10 LC50: 5.13
Colon cancer cell lines; [13]
  mean graph midpoint (MG_MID) of Log10 TGI: 5.58
CNS cancer cell lines; [11]
  mean graph midpoint (MG_MID) of Log10 GI50: 5.54
CNS cancer cell lines; [12]
  mean graph midpoint (MG_MID) of Log10 LC50: 4.55
CNS cancer cell lines; [13]
  mean graph midpoint (MG_MID) of Log10 TGI: 5.01
[7]; [11]
  mean graph midpoint (MG_MID) of Log10 GI50: 5.21
[7]; [13]
  mean graph midpoint (MG_MID) of Log10 TGI: 4.41
[8]; [11]
  mean graph midpoint (MG_MID) of Log10 GI50: 5.96
[8]; [13]
  mean graph midpoint (MG_MID) of Log10 TGI: 4.00
[9]; [11]
  mean graph midpoint (MG_MID) of Log10 GI50: 5.58
[9]; [12]
  mean graph midpoint (MG_MID) of Log10 LC50: 4.41
[9]; [13]
  mean graph midpoint (MG_MID) of Log10 TGI: 4.83
Breast cancer cell lines
  mean graph midpoint (MG_MID) of Log10 LC50: 4.91
Breast cancer cell lines; Breast panel, log of concentration in mol/L causing 50% inhibition of net cell growth
  mean graph midpoint (MG_MID) of Log10 GI50: 5.61
Breast cancer cell lines; Breast panel, log of concentration resulting in total inhibition of net cell growth
  mean graph midpoint (MG_MID) of Log10 TGI: 4.86
